Assays:
5-HT6R [1] = target: T1, 5-HT6R (Homo sapiens, UniProt P50406); assay: Inhibition of 5-CT-stimulated cAMP production in 1321N1 cells; type: cell-based; design: expressed in transfected cells; details: antagonism of 5-CT (1000 nM)-stimulated cAMP
Description: The effect of compounds 18, 22, 27, and 28 on adenylate cyclase was examined in 1321N1 cells expressing the 5-HT6R.
The properties of compounds 18, 22, 27, 28 to inhibit cAMP production induced by 5-CT (1000 nM), a 5-HT6R agonist, were evaluated. Compounds were tested in triplicate at eight concentrations (10^–11–10^–4 M). The level of cAMP was measured using frozen recombinant 1321N1 cells expressing the human serotonin 5-HT6R (PerkinElmer). Total cAMP was measured using the LANCE cAMP detection kit (PerkinElmer), according to the manufacturer’s recommendations. For quantification of cAMP levels, 2000 cells/well (5 μL) were incubated with a mixture of compounds (5 μL) for 30 min at room temperature in 384-well white opaque microtiter plate. After incubation, the reaction was stopped and cells were lysed by the addition of 10 μL of working solution (5 μL of Eu-cAMP and 5 μL of ULight-anti-cAMP) for 1 h at room temperature. Time-resolved fluorescence resonance energy transfer (TR-FRET) was detected by an Infinite M1000 Pro (Tecan) using instrument settings from LANCE cAMP detection kit manual. Kb values were calculated from Cheng–Prusoff equation specific for the analysis of functional inhibition curves: Kb = IC50/(1 + A/EC50) where A represents agonist concentration, IC50 the concentration of antagonist producing a 50% reduction in the response to agonist, and EC50 the agonist concentration which causes a half of the maximal response.[44]

5-HT6R [2] = target: T1, 5-HT6R; assay: Basal cAMP production (constitutive Gs signaling) in NG108-15 cells transiently expressing 5-HT6R, CAMYEL BRET; type: cell-based; design: expressed in transfected cells; host or cells: NG108-15 (transient, Lipofectamine 2000, cotransfected with the CAMYEL sensor); details: for functional profile: 5-HT6R-dependent Gs signaling, NG108-15 cells; for IC50: decrease of basal cAMP, NG108-15 cells transiently expressing 5-HT6R
Description: NG108-15 cells were grown in Dulbecco’s modified Eagle’s medium (DMEM) supplemented with 10% dialyzed fetal calf serum, 2% hypoxanthine/aminopterin/thymidine (Life Technologies), and antibiotics. cAMP measurement was performed in cells transiently expressing 5-HT6R using the bioluminescence resonance energy transfer (BRET) sensor for cAMP, CAMYEL (cAMP sensor using YFP-Epac-RLuc).[45] NG108-15 cells were cotransfected in suspension with 5-HT6R (0.5 μg DNA/million cells) and CAMYEL constructs (1 μg DNA/million cells), using Lipofectamine 2000 according to the manufacturer’s protocol, and plated in white 96-well plates (Greiner) at a density of 50 000 cells per well. […] Coelanterazine H (Molecular Probes) was added at a final concentration of 5 μM and left at room temperature for 5 min. BRET was measured using a Mithras LB 940 plate reader (Berthold Technologies).

M1 muscarinic receptor = target: T2, M1 muscarinic receptor (Homo sapiens, UniProt P11229); assay: Eurofins Cerep off-target binding, % inhibition at 1 μM
T2 construct: Eurofins Cerep (contract assay)
T2 sequence (P11229 1-460): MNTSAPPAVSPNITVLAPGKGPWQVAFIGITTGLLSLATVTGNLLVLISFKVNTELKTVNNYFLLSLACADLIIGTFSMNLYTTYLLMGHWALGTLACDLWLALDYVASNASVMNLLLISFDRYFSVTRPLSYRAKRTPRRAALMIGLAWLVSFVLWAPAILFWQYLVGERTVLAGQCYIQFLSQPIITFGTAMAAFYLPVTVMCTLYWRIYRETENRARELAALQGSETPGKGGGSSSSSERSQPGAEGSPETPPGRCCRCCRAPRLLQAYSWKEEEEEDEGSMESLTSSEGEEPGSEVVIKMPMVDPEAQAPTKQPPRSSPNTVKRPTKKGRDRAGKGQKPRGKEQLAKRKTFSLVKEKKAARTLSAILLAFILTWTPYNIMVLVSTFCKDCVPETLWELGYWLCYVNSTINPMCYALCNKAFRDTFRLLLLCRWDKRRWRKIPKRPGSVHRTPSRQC
Description: (§1) Additionally, the affinity of compound 27 at the adrenergic α1A, muscarinic M1, histaminergic H1, dopaminergic D3, serotoninergic 5-HT2C, 5-HT3 receptors, serotonin transporter (SERT), and the human ether-a-go-go-related gene (hERG) channel were evaluated in Eurofins Cerep.

[3] = target: T3, serotonin transporter (SERT) (Homo sapiens, UniProt P31645); assay: as above
T3 construct: Eurofins Cerep (contract assay)
Description: as §1

serotonin 5-HT3 receptor = target: T4, serotonin 5-HT3 receptor (Homo sapiens, UniProt P46098); assay: as above
T4 construct: Eurofins Cerep (contract assay)
T4 sequence (P46098 24-478): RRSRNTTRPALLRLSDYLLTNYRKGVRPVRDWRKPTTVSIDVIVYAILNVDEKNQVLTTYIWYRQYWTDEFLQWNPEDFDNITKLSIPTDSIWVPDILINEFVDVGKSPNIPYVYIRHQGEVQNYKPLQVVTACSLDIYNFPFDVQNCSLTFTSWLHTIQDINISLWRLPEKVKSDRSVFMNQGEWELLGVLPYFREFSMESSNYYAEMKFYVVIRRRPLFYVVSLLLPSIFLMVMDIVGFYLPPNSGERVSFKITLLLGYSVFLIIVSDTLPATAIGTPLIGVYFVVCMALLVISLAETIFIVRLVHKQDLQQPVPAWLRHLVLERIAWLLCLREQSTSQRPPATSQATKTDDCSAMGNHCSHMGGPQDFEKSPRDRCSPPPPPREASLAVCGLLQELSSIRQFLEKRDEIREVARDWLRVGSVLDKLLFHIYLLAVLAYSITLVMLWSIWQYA
Description: as §1

D3 dopamine receptor = target: T5, D3 dopamine receptor (Homo sapiens, UniProt P35462); assay: as above
T5 construct: Eurofins Cerep (contract assay)
Description: as §1

[4] = target: T6, serotonin 5-HT2C receptor (Homo sapiens, UniProt P28335); assay: as above
T6 construct: Eurofins Cerep (contract assay)
T6 sequence (P28335 33-458): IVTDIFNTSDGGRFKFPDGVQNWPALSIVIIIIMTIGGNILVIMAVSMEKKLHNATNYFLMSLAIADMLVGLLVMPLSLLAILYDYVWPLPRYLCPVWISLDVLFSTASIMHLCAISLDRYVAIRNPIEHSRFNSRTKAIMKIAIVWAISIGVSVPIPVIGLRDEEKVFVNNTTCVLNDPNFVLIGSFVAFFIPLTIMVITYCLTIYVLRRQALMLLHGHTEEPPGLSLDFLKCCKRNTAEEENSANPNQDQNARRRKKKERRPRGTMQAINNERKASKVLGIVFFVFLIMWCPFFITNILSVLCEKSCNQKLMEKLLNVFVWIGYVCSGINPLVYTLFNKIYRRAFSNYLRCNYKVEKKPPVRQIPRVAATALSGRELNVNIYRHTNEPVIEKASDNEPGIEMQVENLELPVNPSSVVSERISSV
Description: as §1

H1 histaminic receptor = target: T7, H1 histaminic receptor (Homo sapiens, UniProt P35367); assay: as above
T7 construct: Eurofins Cerep (contract assay)
Description: as §1

T1 sequence (P50406 whole entry): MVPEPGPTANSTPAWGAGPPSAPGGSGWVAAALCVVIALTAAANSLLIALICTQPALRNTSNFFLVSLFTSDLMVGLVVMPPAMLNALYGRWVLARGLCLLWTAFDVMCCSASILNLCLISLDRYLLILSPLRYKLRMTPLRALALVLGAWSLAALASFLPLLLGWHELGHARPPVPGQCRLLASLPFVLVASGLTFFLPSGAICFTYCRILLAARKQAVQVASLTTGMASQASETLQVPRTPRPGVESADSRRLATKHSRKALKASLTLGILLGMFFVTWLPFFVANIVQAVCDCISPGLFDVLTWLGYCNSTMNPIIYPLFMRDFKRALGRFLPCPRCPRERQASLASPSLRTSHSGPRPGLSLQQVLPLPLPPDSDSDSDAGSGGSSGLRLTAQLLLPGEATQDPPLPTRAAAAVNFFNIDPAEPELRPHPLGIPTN
T7 sequence (P35367 whole entry): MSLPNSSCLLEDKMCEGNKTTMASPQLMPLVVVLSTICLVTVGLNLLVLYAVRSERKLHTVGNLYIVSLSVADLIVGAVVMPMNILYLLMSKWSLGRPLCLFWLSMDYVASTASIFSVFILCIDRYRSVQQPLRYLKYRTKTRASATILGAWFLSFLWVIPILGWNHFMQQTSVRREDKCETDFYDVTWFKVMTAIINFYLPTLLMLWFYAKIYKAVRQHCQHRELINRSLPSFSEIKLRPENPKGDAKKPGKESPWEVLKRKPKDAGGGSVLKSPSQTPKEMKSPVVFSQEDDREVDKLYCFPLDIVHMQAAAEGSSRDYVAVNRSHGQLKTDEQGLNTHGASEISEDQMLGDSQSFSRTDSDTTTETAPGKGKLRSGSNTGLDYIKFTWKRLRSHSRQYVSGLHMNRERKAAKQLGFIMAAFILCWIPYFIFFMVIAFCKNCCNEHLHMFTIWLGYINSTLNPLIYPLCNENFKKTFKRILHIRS
T5 sequence (P35462 whole entry): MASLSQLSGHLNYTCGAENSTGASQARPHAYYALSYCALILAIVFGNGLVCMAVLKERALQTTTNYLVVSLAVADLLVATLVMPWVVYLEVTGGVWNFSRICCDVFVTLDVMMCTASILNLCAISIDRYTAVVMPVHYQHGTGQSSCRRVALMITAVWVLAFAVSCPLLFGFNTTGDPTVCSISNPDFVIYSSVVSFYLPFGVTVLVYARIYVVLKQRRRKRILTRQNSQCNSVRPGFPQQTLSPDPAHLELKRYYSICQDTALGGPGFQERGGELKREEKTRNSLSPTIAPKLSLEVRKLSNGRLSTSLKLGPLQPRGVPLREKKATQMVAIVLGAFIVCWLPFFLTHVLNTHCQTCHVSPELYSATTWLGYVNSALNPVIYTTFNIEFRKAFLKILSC
T3 sequence (P31645 whole entry, species assumed): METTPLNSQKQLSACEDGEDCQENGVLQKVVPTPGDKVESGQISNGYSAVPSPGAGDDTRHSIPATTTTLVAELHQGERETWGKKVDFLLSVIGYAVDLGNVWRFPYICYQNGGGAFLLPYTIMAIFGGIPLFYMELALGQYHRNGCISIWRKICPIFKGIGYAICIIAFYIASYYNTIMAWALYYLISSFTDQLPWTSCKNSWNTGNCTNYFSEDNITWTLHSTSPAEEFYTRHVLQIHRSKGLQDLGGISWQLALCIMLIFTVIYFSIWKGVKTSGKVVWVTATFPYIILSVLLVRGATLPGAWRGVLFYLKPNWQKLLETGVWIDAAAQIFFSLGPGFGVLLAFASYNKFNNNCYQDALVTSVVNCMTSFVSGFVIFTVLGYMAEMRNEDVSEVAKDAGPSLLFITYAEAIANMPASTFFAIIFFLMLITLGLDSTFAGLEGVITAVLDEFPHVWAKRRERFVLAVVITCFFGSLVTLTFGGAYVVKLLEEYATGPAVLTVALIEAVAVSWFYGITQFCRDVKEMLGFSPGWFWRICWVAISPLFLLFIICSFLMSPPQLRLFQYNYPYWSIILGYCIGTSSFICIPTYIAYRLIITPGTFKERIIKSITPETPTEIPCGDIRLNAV

With `O=C(N[C@H]1CCNC1)c1ccn(S(=O)(=O)c2cccc(Cl)c2)c1-c1ccc(F)cc1` [Compound 28, (S)-2-(4-Fluorophenyl)-1-[(3-chlorophenyl)sulfonyl]-N-(pyrrolidin-3-yl)-1H-pyrrole-3-carboxamide] the Kb (5-HT6R [1]) was 7.6 nM, the functional profile (5-HT6R [2]) was “inverse agonist” and the IC50 (5-HT6R [2]) was 140 nM.
`O=C(N[C@@H]1CCNC1)c1ccn(S(=O)(=O)c2cccc(Cl)c2)c1-c1ccc(F)cc1` [Compound 27, (R)-2-(4-Fluorophenyl)-1-[(3-chlorophenyl)sulfonyl]-N-(pyrrolidin-3-yl)-1H-pyrrole-3-carboxamide] was tested, and the Kb (5-HT6R [1]) was 11.4 nM, the functional profile (5-HT6R [2]) was “inverse agonist” and the IC50 (5-HT6R [2]) was 265 nM. The inhibition at 1 µM (M1 muscarinic receptor) was 0%, the inhibition at 1 µM [3] was 10% and the inhibition at 1 µM (serotonin 5-HT3 receptor) was 2%. For the same molecule, the inhibition at 1 µM (D3 dopamine receptor) was 17%, the inhibition at 1 µM [4] was 10% and the inhibition at 1 µM (H1 histaminic receptor) was 9%.

— PMC8041276 (ACS Chemical Neuroscience, 2021)
